Source: patent publication US8642653B2, “Ketone compounds and compositions for cholesterol management and related uses” (Esperion Therapeutics, Inc., priority 2003, dated 2014)
Like-named read-outs stand apart in the source and are kept apart here.

Columns and labels:
obese female Zucker rats = assay: Daily oral gavage in obese female Zucker rats: serum nonHDL cholesterol, HDL cholesterol, triglycerides, glycemic control indicators, body weight; format: in vivo, rat (Zucker fatty Crl:(Zuc)-faBR); conditions: Rattus norvegicus, 100 mg/kg daily oral gavage
Method: Ten- to twelve-week old (400-500 grams) female Zucker fatty rats Crl: (Zuc)-faBR were obtained from Charles River Laboratories. Animals were acclimated to the laboratory environment for seven days. During the acclimation and study period, animals were housed by group in shoebox polycarbonate cages on Cellu-Dri bedding. The temperature and humidity in the animals' quarters (68-78° F.; 30-75% RH) were monitored and the airflow in the room was sufficient to provide several exchanges per hour with 100% fresh filtered air. An automatic timing device provided an alternating 12-hour cycle of light and dark. Rats received pelleted Purina Laboratory Rodent Chow® (5001) prior to and during the drug intervention period except for a 6-hour phase prior to blood sampling. Fresh water was supplied ad libitum via an automatic watering system. Compounds were dissolved, suspended by mixing in a dosing vehicle consisting of 1.5% carboxymethylcellulose/0.2% Tween 20 or 20% ethanol and 80% polyethylene glycol-200 [v/v]. Dose volume of vehicle or vehicle plus each compound was set at 0.25% of body weight in order to deliver the appropriate dose. Doses were administered daily by oral gavage, approximately between 8-10 AM. Regarding blood sampling, animals were fasted for 6 hours prior to all blood collections. Prior to and after 7 days of dosing, a 1.0- to 2.0-mL sample of blood was collected by administering O2/CO2 anesthesia and bleeding from the orbital venous plexus. Following 14 days of dosing, blood was collected by cardiac puncture after euthanasia with CO2. All blood samples were processed for separation of serum and stored at −80° C. until analysis. Commercially available kits were used to determine serum triglycerides (Roche Diagnostic Corporation, Kit No. 148899 or Boehringer Mannheim, Kit No. 1488872), total cholesterol (Roche Diagnostic Corporation, Kit No. 450061), non-esterified fatty acids (Wako Chemicals, Kit No. 994-75409) and β-hydroxybutyrate (Wako Chemicals, Kit No. 417-73501 or Sigma Kit. No. 310-0) on a Hitachi 912 Automatic Analyzer (Roche Diagnostic Corporation). In some instances, an in-house cholesterol reagent was used to determine total serum cholesterol levels. Serum lipoprotein cholesterol levels were determined by lipoprotein profile analysis. Lipoprotein profiles were analyzed using gel-filtration chromatography on a Superose 6HR (1×30 cm) column equipped with on-line detection of total cholesterol as described by Kieft et al (Kieft, K. A.; Bocan, T. M.; Krause, B. R. Rapid on-line determination of cholesterol distribution among plasma lipoproteins after high-performance gel filtration chromatography. J. Lipid Res. 1991, 32, 859-866.). The total cholesterol content of each lipoprotein was calculated by multiplying the independent values determined for serum total cholesterol by the percent area of each lipoprotein in the profile. The percent body weight gain and the ratio of liver to body weight is also determined. Selected data are shown as absolute values or as a percent change of the pretreatment values in Tables 8 and 9.
Select compounds (214c, 210c, and 210g) were further evaluated in the Zucker rat by performing a full dose response and measuring additional serum variables including markers for diabetes (Tables 10-12).

[1] = test system: Lipid Synthesis in Primary Rat Hepatocytes; assay: Inhibition of lipid synthesis ([1-14C]-acetate incorporation) in primary cultures of rat hepatocytes; format: cell-based, rat (Sprague-Dawley); conditions: Hepatocyte, 4 h, 4 h incubation with [1-14C]-acetate, 0-300 μM compound, Table 7, ranges where confidence of estimate is insufficient to assign a value
Method: Compounds were tested for inhibition of lipid synthesis in primary cultures of rat hepatocytes. […] Sprague-Dawley rats were anesthetized with intraperitoneal injection of sodium pentobarbital (80 mg/kg). Rat hepatocytes were isolated essentially as described by the method of Seglen (Seglen, P. O. Hepatocyte suspensions and cultures as tools in experimental carcinogenesis. J. Toxicol. Environ. Health 1979, 5, 551-560). Hepatocytes were suspended in Dulbecco's Modified Eagles Medium containing 25 mM D-glucose, 14 mM HEPES, 5 mM L-glutamine, 5 mM leucine, 5 mM alanine, 10 mM lactate, 1 mM pyruvate, 0.2% bovine serum albumin, 17.4 mM non-essential amino acids, 20% fetal bovine serum, 100 nM insulin and 20 μg/mL gentamycin) and plated at a density of 1.5×10^5 cells/cm^2 on collagen-coated 96-well plates. Four hours after plating, media was replaced with the same media without serum. […] Lipid synthesis incubation conditions were initially assessed to ensure the linearity of [1-^14C]-acetate incorporation into hepatocyte lipids for up to 4 hours. Hepatocyte lipid synthesis inhibitory activity was assessed during incubations in the presence of 0.25 μCi [1-^14C]-acetate/well (final radiospecific activity in assay is 1 Ci/mol) and 0, 1, 3, 10, 30, 100 or 300 μM of compounds for 4 hours. […] Lipid radioactivity was assessed by scintillation spectroscopy in a Packard TopCount NXT.

[2] = 168 h, 1 wk, Table 9, read-out: HDL-Cholesterol, Percent Change from Pre-Treatment, 1 wk

Compound: CC(C)(CCCCCC(=O)CCCCCC(C)(C)C(=O)O)C(=O)O
- change in vivo at 100 mg/kg (obese female Zucker rats; [2]): 70%

Compound: O=C(CCCCC1(C(=O)O)CCCC1)CCCCC1(C(=O)O)CCCC1 [Compound 107g, 1-[9-(1-Carboxycyclopentyl)-5-oxononyl]-1-cyclopentanecarboxylic acid]
- melting point: 99 to 103 °C

Compound: O=C(CCCCCC1(C(=O)O)CC1)CCCCCC1(C(=O)O)CC1 [Compound 107l, 1-[11-(1-Carboxycyclopropyl)-6-oxoundecyl]-1-cyclopropanecarboxylic acid]
- melting point: 122 to 123 °C

Compound: O=C(CCCCCC1(C(=O)O)CCCC1)CCCCCC1(C(=O)O)CCCC1 [Compound 107m, 1-[11-(1-Carboxycyclopentyl)-6-oxoundecyl]-1-cyclopentanecarboxylic acid]
- melting point: 78 to 85 °C

Compound: CC(C)(CCCCCCCC(=O)CCCCCCCC(C)(C)C(=O)O)C(=O)O [Compound 107n, 10-Oxo-2,2,18,18-tetramethyl-nonadecanedioic acid]
- melting point: 74 to 77 °C

Compound: CC(C)(CCCCCCCC(=O)CCCCCCCC(C)(C)C(=O)O)C(=O)O [drawing 538]
- IC50 [1]: 5 µM

Compound: CC(C)(CCCCCCCC(=O)CCCCCCCC(C)(C)C(=O)O)C(=O)O [drawing 559]
- change in vivo at 100 mg/kg (obese female Zucker rats; [2]): 44%
- change in vivo at 100 mg/kg (obese female Zucker rats; 168 h, 1 wk, Table 9, read-out: NonHDL-Cholesterol, Percent Change from Pre-Treatment, 1 wk): -80%
- change in vivo at 100 mg/kg (obese female Zucker rats; 168 h, 1 wk, Table 9, read-out: TG, Percent Change from Pre-Treatment, 1 wk): -85%
- change in vivo at 100 mg/kg (obese female Zucker rats; 336 h, 2 wk, Table 9, read-out: HDL-Cholesterol, Percent Change from Pre-Treatment, 2 wk): 86%
- change in vivo at 100 mg/kg (obese female Zucker rats; 336 h, 2 wk, Table 9, read-out: NonHDL-Cholesterol, Percent Change from Pre-Treatment, 2 wk): -46%
- change in vivo at 100 mg/kg (obese female Zucker rats; 336 h, 2 wk, Table 9, read-out: TG, Percent Change from Pre-Treatment, 2 wk): -63%
